Laboratory results: patent US12421249B2, “Inhibitors of APOL1 and methods of using same” (Vertex Pharmaceuticals Incorporated, priority 2020, dated 2025)

These molecules were tested against T1, APOL1 (Homo sapiens, UniProt O14791) (assay: Multi-Tox Assay (MultiTox-Fluor Multiplex Cytotoxicity Assay in tet-inducible APOL1 T-REx-HEK293 cells; Table 46 does not say which APOL1 variant G0/G1/G2)). Settings: APOL1 variant not given.
T1 sequence (O14791 1-398 S342G/I384M): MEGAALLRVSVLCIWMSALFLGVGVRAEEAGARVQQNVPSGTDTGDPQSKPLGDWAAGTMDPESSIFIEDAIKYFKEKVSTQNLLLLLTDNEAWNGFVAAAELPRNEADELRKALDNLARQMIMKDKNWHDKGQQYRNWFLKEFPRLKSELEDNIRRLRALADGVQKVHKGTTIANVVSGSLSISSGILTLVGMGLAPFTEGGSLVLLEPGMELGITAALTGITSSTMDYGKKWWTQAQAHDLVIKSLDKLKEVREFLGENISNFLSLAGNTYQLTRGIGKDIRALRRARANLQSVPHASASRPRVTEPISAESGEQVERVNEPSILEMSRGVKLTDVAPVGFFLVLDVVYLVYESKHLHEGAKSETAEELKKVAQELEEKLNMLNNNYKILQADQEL
Type: cell-based

**Q.** With `COCCOCCn1cc([C@@H]2C[C@]3(C[C@H](C)N2)OCC(F)(F)c2cc(Cl)sc23)nn1` [Compound 340] as the molecule, how does the “Multi-Tox Assay Max Activity (%)” value read?
**A.** The value was 98.0%.

**Q.** For `Cc1nccn1CCCn1cc([C@@H]2C[C@]3(C[C@H](C)N2)OCC(F)(F)c2cc(Cl)sc23)nn1` [Compound 341], which “Multi-Tox Assay Max Activity (%)” value is on record?
**A.** The value was 98.0%.

**Q.** For `COCC(O)Cn1cc([C@@H]2C[C@]3(C[C@H](C)N2)OCC(F)(F)c2cc(Cl)sc23)nn1` (some centres unmarked) [Compound 342], which “Multi-Tox Assay Max Activity (%)” value is on record?
**A.** The value was 98.0%.

**Q.** How did the “Multi-Tox Assay Max Activity (%)” value turn out when `C[C@H]1C[C@@]2(C[C@@H](c3cn(CC4CCCCO4)nn3)N1)OCC(F)(F)c1cc(Cl)sc12` (some centres unmarked) [Compound 343] was run?
**A.** The value was 97.0%.

**Q.** `C[C@H]1C[C@@]2(C[C@@H](c3cn(CCCS(C)(=O)=O)nn3)N1)OCC(F)(F)c1cc(Cl)sc12` [Compound 344] was tested. Which “Multi-Tox Assay Max Activity (%)” value did it give?
**A.** The value was 99.0%.

**Q.** How did the “Multi-Tox Assay Max Activity (%)” value turn out when `CC(C)C(=O)NCCn1cc([C@@H]2C[C@]3(C[C@H](C)N2)OCC(F)(F)c2cc(Cl)sc23)nn1` [Compound 345] was run?
**A.** Its value is 99.0%.

**Q.** With `C[C@H]1C[C@@]2(C[C@@H](c3cn(Cc4nc5ncccc5[nH]4)nn3)N1)OCC(F)(F)c1cc(Cl)sc12` [Compound 346] as the molecule, how does the “Multi-Tox Assay Max Activity (%)” value read?
**A.** Its value is 99.0%.

**Q.** Which “Multi-Tox Assay Max Activity (%)” value does the source give for `C[C@H]1C[C@@]2(C[C@@H](c3cn(Cc4ccccc4S(C)(=O)=O)nn3)N1)OCC(F)(F)c1cc(Cl)sc12` [Compound 347] here?
**A.** Its value is 96.0%.

**Q.** Which “Multi-Tox Assay Max Activity (%)” value does the source give for `COc1ccc(C(O)Cn2cc([C@@H]3C[C@]4(C[C@H](C)N3)OCC(F)(F)c3cc(Cl)sc34)nn2)cc1` (some centres unmarked) [Compound 348] here?
**A.** Its value is 97.0%.

**Q.** For `C[C@H]1C[C@@]2(C[C@@H](c3cn(Cc4n[nH]c5ccccc45)nn3)N1)OCC(F)(F)c1cc(Cl)sc12` [Compound 349], which “Multi-Tox Assay Max Activity (%)” value is on record?
**A.** The value was 91.0%.

**Q.** `C[C@H]1C[C@@]2(C[C@@H](c3cn(Cc4ncnc5[nH]ccc45)nn3)N1)OCC(F)(F)c1cc(Cl)sc12` [Compound 350] was tested. Which “Multi-Tox Assay Max Activity (%)” value did it give?
**A.** Its value is 99.0%.

**Q.** Which “Multi-Tox Assay Max Activity (%)” value does the source give for `Cc1cc(C)nc(CCn2cc([C@@H]3C[C@]4(C[C@H](C)N3)OCC(F)(F)c3cc(Cl)sc34)nn2)c1` [Compound 351] here?
**A.** The value was 98.0%.

**Q.** How did the “Multi-Tox Assay Max Activity (%)” value turn out when `C[C@H]1C[C@@]2(C[C@@H](c3cn(Cc4ccc(C#N)nc4)nn3)N1)OCC(F)(F)c1cc(Cl)sc12` [Compound 352] was run?
**A.** The value was 99.0%.

**Q.** How did the “Multi-Tox Assay Max Activity (%)” value turn out when `Cc1noc(C)c1Cn1cc([C@@H]2C[C@]3(C[C@H](C)N2)OCC(F)(F)c2cc(Cl)sc23)nn1` [Compound 353] was run?
**A.** Its value is 100.0%.

**Q.** Which “Multi-Tox Assay Max Activity (%)” value does the source give for `C[C@H]1C[C@@]2(C[C@@H](c3cn(CCOc4ccccc4F)nn3)N1)OCC(F)(F)c1cc(Cl)sc12` [Compound 354] here?
**A.** The value was 99.0%.

**Q.** For `C[C@H]1C[C@@]2(C[C@@H](c3cn(Cc4ccc(S(C)(=O)=O)cc4)nn3)N1)OCC(F)(F)c1cc(Cl)sc12` [Compound 355], which “Multi-Tox Assay Max Activity (%)” value is on record?
**A.** The value was 98.0%.

**Q.** Which results are given for `C[C@H]1C[C@@]2(C[C@@H](c3cn(CC(=O)N4CCCCC4)nn3)N1)OCC(F)(F)c1cc(Cl)sc12` [Compound 356]?
**A.** IC90: 50 to 500 nM; Multi-Tox Assay Max Activity (%): 99.0%

**Q.** For `C[C@H]1C[C@@]2(C[C@@H](c3cn(CC4(CO)CC4)nn3)N1)OCC(F)(F)c1cc(Cl)sc12` [Compound 357], which “Multi-Tox Assay Max Activity (%)” value is on record?
**A.** The value was 99.0%.

**Q.** With `C[C@H]1C[C@@]2(C[C@@H](c3cn(Cc4cnc5cnccn45)nn3)N1)OCC(F)(F)c1cc(Cl)sc12` [Compound 358] as the molecule, how does the “Multi-Tox Assay Max Activity (%)” value read?
**A.** The value was 98.0%.

**Q.** For `C[C@H]1C[C@@]2(C[C@@H](c3cn(CCCO)nn3)N1)OCC(F)(F)c1cc(Cl)sc12` [Compound 359], which “Multi-Tox Assay Max Activity (%)” value is on record?
**A.** Its value is 98.0%.

**Q.** For `COc1ccc(Cn2cc([C@@H]3C[C@]4(C[C@H](C)N3)OCC(F)(F)c3cc(Cl)sc34)nn2)cn1` [Compound 360], which “Multi-Tox Assay Max Activity (%)” value is on record?
**A.** Its value is 99.0%.

Same assay, conditions: IP50 = IC50 for cell proliferation, APOL1 variant not given

**Q.** How did the IC50 turn out when `C[C@H]1C[C@@]2(C[C@@H](c3cn(CC4(F)CCOCC4)nn3)N1)OCC(F)(F)c1cc(Cl)sc12` [Compound 329] was run?
**A.** The IC50 was greater than 500 nM.

**Q.** With `COCCOCCn1cc([C@@H]2C[C@]3(C[C@H](C)N2)OCC(F)(F)c2cc(Cl)sc23)nn1` [Compound 340] as the molecule, how does the IC50 read?
**A.** Its IC50 is 50 to 500 nM.

**Q.** How did the IC50 turn out when `Cc1nccn1CCCn1cc([C@@H]2C[C@]3(C[C@H](C)N2)OCC(F)(F)c2cc(Cl)sc23)nn1` [Compound 341] was run?
**A.** Its IC50 is 50 to 500 nM.

**Q.** Which IC50 does the source give for `COCC(O)Cn1cc([C@@H]2C[C@]3(C[C@H](C)N2)OCC(F)(F)c2cc(Cl)sc23)nn1` (some centres unmarked) [Compound 342] here?
**A.** The IC50 was 50 to 500 nM.

**Q.** For `C[C@H]1C[C@@]2(C[C@@H](c3cn(CC4CCCCO4)nn3)N1)OCC(F)(F)c1cc(Cl)sc12` (some centres unmarked) [Compound 343], which IC50 is on record?
**A.** The IC50 was 50 to 500 nM.

**Q.** With `C[C@H]1C[C@@]2(C[C@@H](c3cn(CCCS(C)(=O)=O)nn3)N1)OCC(F)(F)c1cc(Cl)sc12` [Compound 344] as the molecule, how does the IC50 read?
**A.** The IC50 was less than 50 nM.

**Q.** With `CC(C)C(=O)NCCn1cc([C@@H]2C[C@]3(C[C@H](C)N2)OCC(F)(F)c2cc(Cl)sc23)nn1` [Compound 345] as the molecule, how does the IC50 read?
**A.** The IC50 was less than 50 nM.

**Q.** For `C[C@H]1C[C@@]2(C[C@@H](c3cn(Cc4nc5ncccc5[nH]4)nn3)N1)OCC(F)(F)c1cc(Cl)sc12` [Compound 346], which IC50 is on record?
**A.** Its IC50 is 50 to 500 nM.

**Q.** How did the IC50 turn out when `C[C@H]1C[C@@]2(C[C@@H](c3cn(Cc4ccccc4S(C)(=O)=O)nn3)N1)OCC(F)(F)c1cc(Cl)sc12` [Compound 347] was run?
**A.** The IC50 was 50 to 500 nM.

**Q.** `COc1ccc(C(O)Cn2cc([C@@H]3C[C@]4(C[C@H](C)N3)OCC(F)(F)c3cc(Cl)sc34)nn2)cc1` (some centres unmarked) [Compound 348] was tested. Which IC50 did it give?
**A.** Its IC50 is 50 to 500 nM.

**Q.** For `C[C@H]1C[C@@]2(C[C@@H](c3cn(Cc4n[nH]c5ccccc45)nn3)N1)OCC(F)(F)c1cc(Cl)sc12` [Compound 349], which IC50 is on record?
**A.** Its IC50 is 50 to 500 nM.

**Q.** For `C[C@H]1C[C@@]2(C[C@@H](c3cn(Cc4ncnc5[nH]ccc45)nn3)N1)OCC(F)(F)c1cc(Cl)sc12` [Compound 350], which IC50 is on record?
**A.** Its IC50 is less than 50 nM.

**Q.** Which IC50 does the source give for `Cc1cc(C)nc(CCn2cc([C@@H]3C[C@]4(C[C@H](C)N3)OCC(F)(F)c3cc(Cl)sc34)nn2)c1` [Compound 351] here?
**A.** The IC50 was less than 50 nM.

**Q.** For `C[C@H]1C[C@@]2(C[C@@H](c3cn(Cc4ccc(C#N)nc4)nn3)N1)OCC(F)(F)c1cc(Cl)sc12` [Compound 352], which IC50 is on record?
**A.** Its IC50 is less than 50 nM.

**Q.** Which IC50 does the source give for `Cc1noc(C)c1Cn1cc([C@@H]2C[C@]3(C[C@H](C)N2)OCC(F)(F)c2cc(Cl)sc23)nn1` [Compound 353] here?
**A.** Its IC50 is less than 50 nM.

**Q.** How did the IC50 turn out when `C[C@H]1C[C@@]2(C[C@@H](c3cn(CCOc4ccccc4F)nn3)N1)OCC(F)(F)c1cc(Cl)sc12` [Compound 354] was run?
**A.** The IC50 was 50 to 500 nM.

**Q.** `C[C@H]1C[C@@]2(C[C@@H](c3cn(Cc4ccc(S(C)(=O)=O)cc4)nn3)N1)OCC(F)(F)c1cc(Cl)sc12` [Compound 355] was tested. Which IC50 did it give?
**A.** Its IC50 is 50 to 500 nM.

**Q.** Which IC50 does the source give for `C[C@H]1C[C@@]2(C[C@@H](c3cn(CC(=O)N4CCCCC4)nn3)N1)OCC(F)(F)c1cc(Cl)sc12` [Compound 356] here?
**A.** Its IC50 is 50 to 500 nM.

**Q.** How did the IC50 turn out when `C[C@H]1C[C@@]2(C[C@@H](c3cn(CC4(CO)CC4)nn3)N1)OCC(F)(F)c1cc(Cl)sc12` [Compound 357] was run?
**A.** The IC50 was 50 to 500 nM.

**Q.** `C[C@H]1C[C@@]2(C[C@@H](c3cn(Cc4cnc5cnccn45)nn3)N1)OCC(F)(F)c1cc(Cl)sc12` [Compound 358] was tested. Which IC50 did it give?
**A.** Its IC50 is less than 50 nM.

**Q.** For `C[C@H]1C[C@@]2(C[C@@H](c3cn(CCCO)nn3)N1)OCC(F)(F)c1cc(Cl)sc12` [Compound 359], which IC50 is on record?
**A.** Its IC50 is less than 50 nM.

**Q.** For `COc1ccc(Cn2cc([C@@H]3C[C@]4(C[C@H](C)N3)OCC(F)(F)c3cc(Cl)sc34)nn2)cn1` [Compound 360], which IC50 is on record?
**A.** The IC50 was 50 to 500 nM.
